Measurements taken from patent US20160045498A1, “METHODS OF TREATING DISEASES CHARACTERIZED BY EXCESSIVE WNT SIGNALLING” (THE WALTER AND ELIZA HALL INSTITUTE OF MEDICAL RESEARCH, priority 2013, published 2016).

Experiments:
TYK2 = TYK2 (Homo sapiens, UniProt P29597); conditions: WO2012062704; cited from earlier work
intestinal tumours = assay: Intestinal tumour burden after tamoxifen-induced conditional Apc deletion in Lgr5CreERT2;Apcfl/fl mice; type: in vivo; conditions: Lgr5CreERT2;Apcfl/fl mice, CYT387 30 mg/kg oral gavage
Description: e Quantification of intestinal tumour burden of mice using the Metamorph analysis tool (Barker et al., 2009) after tamoxifen-induced conditional Apc deletion in adult Lgr5^CreERT2;Apc^fl/fl mice that also received daily administration of AZD1480 (30 mg/kg) or vehicle during this time. (*p≦0.04; n=3 mice).
d Intestinal tumour burden 5 weeks after tamoxifen-induced conditional Apc deletion in adult Lgr5^CreERT2;Apc^fl/fl mice that also received daily administration of AZD1480 (Jak2i; 30 mg/kg) or vehicle during this time. Higher magnifications of the boxed areas are provided and arrows point to tubular adenomas whilst arrowheads point to micro-adenomas. Scale bars=1 mm.
10 week old Lgr5CreERT2;Apcfl/fl mice received four i.p injections with tamoxifen (10 mg/ml; 300 ul, 200 ul, 200 ul, 200 ul) over four consecutive days. Three days after the last injection, mice received daily oral gavages with either vehicle (tap water, pH 2.0) or CYT387 (30 mg/kg) for four weeks. Regime was 5 days treatment followed by 2 days off treatment.
Hematoxilin and Eosin-stained sections were scanned using an Aperio ScanScope XT (Aperio, USA) pathology slide scanner with a 20x PlanApo NA0.6 objective and areas of interest were extracted using Aperio ImageScope software v11.1.2.760. The area of individual tumors was outlined using MetaMorph v7.7.7 and standardized against the entire length of the colon section as described (Barker et al., 2009).

intestinal organoids = assay: Organoid culture, crypt formation; type: cell-based, mice; conditions: S3I-201 7.5 μM from day 3 after seeding
Description: […] Arrows point to budding crypt-like structures. Scale bar=50 μm.
d Enumeration of crypts on individual organoids from experiment illustrated in FIG. 1c. (*p≦0.018; Two-sided t-test on triplicate cultures and repeated).
Crypts from small intestines were harvested, washed and were resuspended at 2000 crypts/ml of matrigel (BD Biosciences) and 50 μL was dispensed in each well of a 24-well plate. Once the matrigel had set, medium was added and the organoids cultured for seven days as described (Sato et al., 2009). Experiments were performed in triplicates and repeated.
Organoid cultures were imaged on a Nikon Ti-E microscope using DIC contrast with a 10x PlanApo NA0.3 objective. A focal stack of images was collected (10 μm apart) and processed through the Best Focus function of MetaMorph v7.7.7 (Molecular Devices, USA) to generate the final image of individual Organoids.

SW480 cells [1] = assay: Soft agar colony growth assay, SW480; type: cell-based, human; conditions: SW480, 10 days; AZD1480 1 μM, S3I-201 50 μM, IL11 10 ng/ml
Description: (§1) e Photograph of SW480 and SW480^APC CRC cells grown for 10 days under colony forming conditions in soft agar in the presence of vehicle or 1 μM of Jak2 inhibitor AZD1480 (Jak2i) (Scale bar=200 μm)
(§2) f Colony forming capacity of an isogenic pair of SW480 cells scored 10 days after the indicated treatment. (*p≦0.04; triplicate cultures and repeated).
(§3) SW480 and SW480^APC cells (Faux et al., 2004) were seeded in 2 ml of RPMI media supplemented with 10% FBS and 1% penicillin/streptomycin in 35 mm culture dishes at a density of 2×10^5 cells per dish. Three days later cultures were exposed to AZD1480 (1 μM) for 15 min. Co-immunofluorescence was then performed with antibodies to rabbit phospho-Stat3 (Tyr705, Santa Cruz #9134s, 1:200 dilution) and mouse β-catenin (Transduction Laboratories, 1:400). Colony formation assays of SW480 cells in soft agar were performed as described (Faux et al., 2004) in the presence of either AZD1480, (1 μM), the Stat3 inhibitor S3I-201 (Biovision, 50 μM) or recombinant human IL11 (Genetics Institute, 10 ng/ml). All experiments were performed in triplicates and repeated at least once. Vehicle was methylcellulose.

SW480^APC cells [2] = assay: Soft agar colony growth assay, SW480APC; type: cell-based, human; conditions: 10 days, AZD1480 1 μM, S3I-201 50 μM, IL11 10 ng/ml
Description: as §1, §2, §3

SW480 cells [3] = assay: p-STAT3 / β-CATENIN immunofluorescence and SOCS3 RT-qPCR in SW480 cells; type: cell-based, human; conditions: SW480, RT-qPCR; AZD1480 1 μM, IL11 10 ng/ml
Description: (§4) d Immunofluorescence staining for β-CATENIN or tyrosine-705 phosphorylated STAT3 in an isogenic pair of SW480 cells grown in the presence of 1 μM AZD1480 (Jak2i) or vehicle. SW480 cells are APC mutant and lack expression of functional APC protein, while SW480^APC cells have been reconstituted to express wild-type APC. Scale bar=20 μm.
(§5) g RT-qPCR expression analysis for the STAT3 target gene SOCS3 in SW480 and SW480^APC CRC cells grown for 10 days under colony forming conditions in soft agar in the presence of the indicated treatment. Expression in the vehicle-treated cultures was arbitrarily set as 1. (*p≦0.04; triplicate cultures in each of two repeats).
as §3
(§6) Gene expression analysis by RT-qPCR was performed using the SybrGreen method (ABI) as described previously (Phesse et al., 2008). Fold change was calculated using the 2^−ΔΔCT method (Livak et al., 2001). Protein expression was analysed by Western blot by transferring SDS-PAGE separated protein lysates to nitrocellulose membrane and blocked either in 5% non-fat milk powder and probed with antibodies detecting p16 (Santa Cruz; #sc-467), Bmi1 (Millipore #[…]), Actin (Sigma; #A2066) or Gapdh (Santa Cruz; #sc-69778). All antibodies were diluted 1:1000 in BSA or non-fat milk powder and incubations were performed overnight.

SW480^APC cells [4] = assay: p-STAT3 immunofluorescence and SOCS3 RT-qPCR in SW480APC cells; type: cell-based, human; conditions: RT-qPCR, AZD1480 1 μM, IL11 10 ng/ml
Description: as §4, §5, §3, §6

IECs = assay: RT-qPCR of IECs after i.p. injection of recombinant IL-11; type: in vivo; conditions: gp130^F/F mice, 30 minutes after i.p. 5 μg recombinant IL-11
Description: a RT-qPCR expression analysis for Socs3 and Bmi1 in IECs isolated from gp130^F/F mice 30 minutes after an i.p. injection of 5 μg of recombinant IL-11 (p=0.04; n=3 mice).
as §6

TYK2, sequence (P29597 whole entry, species assumed): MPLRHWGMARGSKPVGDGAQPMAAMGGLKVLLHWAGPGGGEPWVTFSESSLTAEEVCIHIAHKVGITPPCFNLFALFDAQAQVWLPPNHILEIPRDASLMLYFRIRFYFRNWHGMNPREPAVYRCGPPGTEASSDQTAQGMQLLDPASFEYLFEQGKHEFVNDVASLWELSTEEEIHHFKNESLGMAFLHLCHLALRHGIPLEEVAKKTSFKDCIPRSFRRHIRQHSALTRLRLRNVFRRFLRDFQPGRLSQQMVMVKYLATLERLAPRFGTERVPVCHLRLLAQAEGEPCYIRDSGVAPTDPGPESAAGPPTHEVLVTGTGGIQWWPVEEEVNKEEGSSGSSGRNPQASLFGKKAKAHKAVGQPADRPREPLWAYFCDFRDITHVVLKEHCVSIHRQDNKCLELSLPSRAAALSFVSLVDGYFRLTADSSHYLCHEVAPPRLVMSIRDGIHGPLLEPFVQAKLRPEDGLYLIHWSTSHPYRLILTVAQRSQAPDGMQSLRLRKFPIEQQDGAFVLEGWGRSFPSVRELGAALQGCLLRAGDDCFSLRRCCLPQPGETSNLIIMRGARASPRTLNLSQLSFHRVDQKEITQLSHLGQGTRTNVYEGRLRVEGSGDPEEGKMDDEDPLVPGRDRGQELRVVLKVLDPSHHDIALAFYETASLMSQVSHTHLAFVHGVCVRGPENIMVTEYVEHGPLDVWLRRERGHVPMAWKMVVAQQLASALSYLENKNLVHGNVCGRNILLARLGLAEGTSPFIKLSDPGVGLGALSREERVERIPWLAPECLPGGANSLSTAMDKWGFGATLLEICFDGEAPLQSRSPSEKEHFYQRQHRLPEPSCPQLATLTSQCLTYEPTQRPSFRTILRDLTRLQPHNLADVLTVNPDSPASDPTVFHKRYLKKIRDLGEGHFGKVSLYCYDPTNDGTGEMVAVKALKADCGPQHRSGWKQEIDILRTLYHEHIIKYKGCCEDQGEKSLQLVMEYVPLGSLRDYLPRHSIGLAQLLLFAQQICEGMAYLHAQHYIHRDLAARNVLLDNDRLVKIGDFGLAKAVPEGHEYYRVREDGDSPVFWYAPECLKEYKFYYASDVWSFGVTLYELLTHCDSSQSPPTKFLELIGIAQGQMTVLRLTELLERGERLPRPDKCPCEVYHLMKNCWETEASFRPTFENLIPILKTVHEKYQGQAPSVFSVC

COc1ccc(-c2nc(NC(=O)C3CC3)ncc2C)cc1F
selectivity for TYK2 (TYK2): > 100 fold

N#CCNC(=O)c1ccc(-c2ccnc(Nc3ccc(N4CCOCC4)cc3)n2)cc1 [CYT387]
morphology of lesions (intestinal tumours; 4 weeks): retained the morphology of the growth arrested microadenomas
intestinal tumour burden (histological assessment) (intestinal tumours; 4 weeks (5 days on, 2 off), vehicle: large tubular adenomas): few small emerging lesion

Cc1ccc(S(=O)(=O)OCC(=O)Nc2ccc(C(=O)O)c(O)c2)cc1 [S3I-201]
crypt formation of organoids (intestinal organoids): reduced
colony formation in soft agar (SW480 cells [1]): strongly impaired
colony formation in soft agar (SW480^APC cells [2]): did not affect colony formation

B1: IL-11: recombinant gp130 cytokine IL-11 (Genetics Institute) (protein, UniProt P20809 22-199, looked up)
Interleukin-11: PGPPPGPPRVSPDPRAELDSTVLLTRSLLADTRQLAAQLRDKFPADGDHNLDSLPTLAMSAGALGALQLPGVLTRLRADLLSYLRHVQWLRRAGGSSLKTLEPELGTLQARLDRLLRRLQLLMSRLALPQPPPDPPAPPLAPPSSAWGGIRAAHAILGGLHLTLDWAVRGLLLLKTRL
SOCS3 expression (SW480 cells [3]): increased SOCS3 expression
SOCS3 expression (SW480^APC cells [4]): increased SOCS3 expression
colony formation in soft agar (SW480 cells [1]): enhanced colony formation
colony formation in soft agar (SW480^APC cells [2]): enhanced colony formation
Bmi1 expression in IECs (IECs): rapidly induced
Socs3 expression in IECs (IECs): rapidly induced
